Assay results as given in paper PMC4160570, “Effects of proarrhythmic drugs on relaxation time and beating pattern in rat engineered heart tissue” (Basic Research in Cardiology, 2014).
Where two headings read alike, the source gives them in different places.

Tests used:
[1] = test system: rat engineered heart tissue (EHT); details: cited from earlier work
[2] = test system: rat engineered heart tissue (EHT); experiment: Ca^2+ transients (Fura-2) and contraction of EHTs under electrical stimulation and perfusion; format: cell-based; details: for effect on relaxation time T2 under electrical stimulation / effect on intracellular Ca^2+ transients (duration): 2 Hz, 4AP 10 mM, epinephrine 50 nM; for effect on intracellular Ca^2+ transients (duration): in absence and presence of 4AP; for reversibility of effects: after washout; for time course of effects under continuous electrical stimulation and perfusion: quinidine 100 µM, erythromycin 1 mM
Method: Intracellular Ca^2+-transients were analyzed in parallel with force under electrical stimulation and continuous perfusion using a novel setup as described previously. The setup consisted of an inverted microscope, a temperature- and O2/CO2-controlled chamber for the 24-well EHT plate, a flow rate-controlled perfusion system, platinum–iridium wire electrodes for field stimulation, a fluorescence light source (IonOptix Hyperswitch), a photomultiplier, video cameras and software (both IonOptix) for the evaluation of contractile activity (edge detection mode). Experiments were done at 4 ml flow/min (per well) and 2–4 Hz stimulation in modified Tyrode’s solution.
For Fura loading, EHTs were incubated in Tyrode’s solution containing 10 µM Fura2-AM (Invitrogen F1221) and Cremophor EL ([…]; Sigma C5135) for 2 h at 37 °C. The ratio of light emission (510 nm) at excitation with 340 and 380 nm light (F340/380 ratio) was used as an index of cytosolic Ca^2+-concentration.
To differentiate between effects on beating rate and relaxation and to analyse intracellular Ca^2+-transients in addition to force, two drugs were additionally analysed under pacing at defined beating rate using a novel modified IonOptix (IonOptix Corporation, Milton, MA, USA) setup. This custom-made setup allowed continuous electrical stimulation and perfusion of EHTs during the measurement. The setup consisted of an inverted microscope, a temperature- and O2/CO2-controlled chamber for the 24-well EHT plate mounted on the microscope stage, a flow rate-controlled perfusion system, platinum wire electrodes for field stimulation and a video camera and software (both IonOptix) for the evaluation of contractile activity (edge detection mode). Experiments were done under a flow rate of approximately 4 ml/min (per well) and stimulation at 2-4 Hz and 7 V. Measurements were done in a modified Tyrode’s solution (mM: NaCl 120, KCl 5.4, MgCl2 1.0, CaCl2 1.8, NaH2PO4 0.4, NaHCO3 22.6, glucose 5.0, Na2EDTA 0.05, ascorbic acid 0.3). EHTs were equilibrated for 20 min in Tyrode’s solution (baseline) and then exposed to the respective drug for up to 20 min. Reversibility of drug effects was determined after 20 min perfusion in drug-free Tyrode’s solution.
For measurement of intracellular Ca^2+-transients, EHTs were incubated in Tyrode’s solution containing 10 µM Fura2-AM (Invitrogen F1221) and the non-ionic detergent Cremophor EL (0.0075%; Sigma C5135) for 2 h at 37 °C. After washing the EHTs for 10 min in Tyrode’s solution, measurements under perfusion and stimulation of Ca^2+-transients were performed in the same way as for force of contraction, but signals were evaluated by a 10x objective (instead of 1.25x for force) and a photomultiplier.The ratio of the emission intensity of light (510 nm) from EHTs alternatively excited at 340 and 380 nm (F340/380 ratio) was used as an index of cytosolic Ca^2+-concentration. Data were evaluated either with the IonOptix software or a customized software or manually when peaks were severely deformed.

[3] = test system: rat engineered heart tissue (EHT); experiment: Video-optical analysis of contractile parameters of spontaneously beating rat EHTs (50 nM epinephrine); details: for effect on T2, drug alone: 1–1,000 nM, even at high concentrations (1,000 nM); for concentration response curve (T2) in the presence of 4AP: 4AP 3 mM; for significant T2 prolongation (p<0.05 and at least 15 % vs baseline): 1-, 10-, 100-fold FTPC, 50 nM epinephrine, n = 4–8
[4] = test system: rat engineered heart tissue (EHT); experiment: Action potentials recorded with intracellular microelectrodes in intact, field-stimulated EHTs; format: cell-based
Method: Action potentials (APs) were recorded with standard intracellular microelectrodes in intact EHTs. […]. Preparations were field-stimulated for at least 1 h (2 Hz) before data acquisition. APs were analyzed off-line using the LabChart® software (ADInstruments, Spechbach, Germany).

Ito [5] = test system: Ito; set-up: method as in PMID 17446473; details: adult rat ventricular myocytes; cited from earlier work
[6] = test system: rat engineered heart tissue (EHT)
IKr = details: read-out: IC50 (IKr blocker); cited from earlier work
rat = details: in vivo; cited from earlier work
mouse = details: in vivo; cited from earlier work
Ito [7] = test system: Ito; set-up: method as in PMID 23896226; details: cited from earlier work
IKs = test system: IKs; set-up: method as in PMID 23896226; details: read-out: IC50 (IKs blocker); cited from earlier work
ICa = test system: ICa; set-up: method as in PMID 23896226; details: cited from earlier work

**Q.** With `CCS(=O)(=O)N(C)[C@H]1c2cc(C#N)ccc2OC(C)(C)[C@@H]1O` (racemic) [chromanol 293b] as the molecule, how does the “effect on relaxation time T2 in a previous EHT study” value [1] read?
**A.** The value was “caused concentration-dependent prolongations of relaxation time T2”.

**Q.** What about the “prolongation of relaxation (T2)” value ([1]; seen previously in EHTs) of the same molecule?
**A.** Its value is “+710%”.

**Q.** For `Nc1ccncc1` [4-aminopyridine (4AP), 4-aminopyridine], which “effect on relaxation time T2 under electrical stimulation” value [2] is on record?
**A.** Its value is “increased T2”.

**Q.** What about the “effect on intracellular Ca^2+ transients (duration)” value [2] of the same molecule?
**A.** Its value is “prolonged intracellular Ca^2+ transients”.

**Q.** And the “concentration starting to prolong T2 relative to IC50 in adult rat cardiac myocytes” value ([3]; 3 mM)?
**A.** Its value is 3 fold IC50.

**Q.** What about the “effect on beating pattern” value ([3]; 4AP 10 mM) of the same molecule?
**A.** Its value is “induced beat-to-beat irregularities, variations of twitch amplitude and aftercontractions”.

**Q.** What about the “prolongation of relaxation (T2)” value ([3]; 4AP 30 mM, cumulative, 45 min per concentration) of the same molecule?
**A.** Its value is “+502%”.

**Q.** And the “concentration at which T2 prolongation reaches significance” value ([3]; cumulative concentrations, 45 min each)?
**A.** Its value is 3 mM.

**Q.** And the “action potential duration (APD90)” value ([4]; 4AP 10 mM, 2 Hz, increased from a mean of 113 ms (vehicle control))?
**A.** The value was 175 ms.

**Q.** What about the IC50 (Ito [5]) of the same molecule?
**A.** Its IC50 is 980 µM.

**Q.** Which “published IKs IC50 relative to threshold for group 1 or 2 effects” value [6] does the source give for `c1ccc(C2(c3ccccc3)CC2C2=NCCN2)cc1` (centres unmarked) [Cibenzoline] here?
**A.** The value was “at or below the threshold for group 1 or 2 effects”.

**Q.** What about the “significant T2 prolongation (p<0.05 and at least 15 % vs baseline)” value ([6]; Wistar, rat) of the same molecule?
**A.** Its value is “Significant T2 prolongations”.

**Q.** What does the source list for `COc1ccc([C@@H]2Sc3ccccc3N(CCN(C)C)C(=O)[C@@H]2OC(C)=O)cc1` [Diltiazem]?
**A.** negative inotropic effect [6]: lack of significant negative inotropic effects; T2-effective concentrations ([6]; Wistar, rat): 100 fold FTPC; significant T2 prolongation (p<0.05 and at least 15 % vs baseline) ([6]; Wistar, rat): Significant T2 prolongations

**Q.** Which results are given for `Cc1cccc(CCN2CCC(C(=O)c3ccc(NS(C)(=O)=O)cc3)CC2)n1` [E-4031]?
**A.** IC50 (IKr): […]; effect on T2 at 100-fold IC50 concentrations [3]: […]; effect on T2, drug alone [3]: Neither E-4031 nor HMR-1556 affected T2; concentration response curve (T2) in the presence of 4AP [3]: […]

**Q.** For `CC[C@H]1OC(=O)[C@H](C)[C@@H](O[C@H]2C[C@@](C)(OC)[C@@H](O)[C@H](C)O2)[C@H](C)[C@@H](O[C@@H]2O[C@H](C)C[C@H](N(C)C)[C@H]2O)[C@](C)(O)C[C@@H](C)C(=O)[C@H](C)[C@@H](O)[C@]1(C)O` [Erythromycin], which reversibility of effects [2] is on record?
**A.** The reversibility of effects was “fully reversible after washout”.

**Q.** What about the “time course of effects under continuous electrical stimulation and perfusion” value [2] of the same molecule?
**A.** Its value is “first prolonged T2, reduced force and then induced an autonomous chaotic contraction pattern”.

**Q.** What about the LD50 (rat) of the same molecule?
**A.** Its LD50 is 4.600 mg∙kg^-1 (rat, p. o.) 2.580 mg∙kg^-1 (mouse, p. o.).

**Q.** And the “significant T2 prolongation (p<0.05 and at least 15 % vs baseline)” value [3]?
**A.** Its value is “Significant T2 prolongations”.

**Q.** And the “irregular beating as the primary effect” value ([3]; sinusoidal fluctuation of twitch amplitudes, time dependent)?
**A.** The value was “induced irregular beating”.

**Q.** What about the “effect on relaxation time T2 in a previous EHT study” value [1] of the same molecule?
**A.** Its value is “caused concentration-dependent prolongations of relaxation time T2”.

**Q.** What about the LD50 (mouse) of the same molecule?
**A.** Its LD50 is 4.600 mg∙kg^-1 (rat, p. o.) 2.580 mg∙kg^-1 (mouse, p. o.).

**Q.** What does the source list for `CN([C@H]1c2cc(OCCCC(F)(F)F)ccc2OC(C)(C)[C@@H]1O)S(C)(=O)=O` [HMR-1556]?
**A.** IC50 (Ito [7]): 33.9 µM; IC50 (IKs): 0.0105 µM; effect on T2, drug alone [3]: Neither E-4031 nor HMR-1556 affected T2; concentration response curve (T2) in the presence of 4AP [3]: shifted to the left; IC50 (ICa): 27.5 µM

**Q.** Which “significant T2 prolongation (p<0.05 and at least 15 % vs baseline)” value ([6]; Wistar, rat) does the source give for `CC(=O)N1CCN(c2ccc(OCC3COC(Cn4ccnc4)(c4ccc(Cl)cc4Cl)O3)cc2)CC1` (centres unmarked) [Ketoconazole] here?
**A.** Its value is “Significant T2 prolongations”.

**Q.** And the LD50 (rat)?
**A.** Its LD50 is 166 mg∙kg^-1 (rat, p. o.).

**Q.** Which results are given for `C=C[C@H]1C[N@@]2CC[C@H]1C[C@@H]2[C@@H](O)c1ccnc2ccc(OC)cc12` [Quinidine]?
**A.** reversibility of effects [2]: fully reversible after washout; time course of effects under continuous electrical stimulation and perfusion [2]: marked, time-dependent prolongation of T2 and a reduction in force, which was then followed by the development of a slower rhythm independent of pacing; T2-threshold concentration [3]: 100 µM; published IC50 values for hERG and Ito relative to threshold for T2 prolongation or irregularity [3]: at or below the threshold for T2 prolongation or irregularity; published IKs IC50 relative to threshold for group 1 or 2 effects [3]: at or below the threshold for group 1 or 2 effects; significant T2 prolongation (p<0.05 and at least 15 % vs baseline) [3]: Significant T2 prolongations; effect on relaxation time T2 in a previous EHT study [1]: caused concentration-dependent prolongations of relaxation time T2; action potential duration (APD90) ([4]; quinidine 100 µM, increased from 179 ms): 232 ms

**Q.** Which “effect on force (group 3)” value [6] does the source give for `COc1ccc(CCN(C)CCCC(C#N)(c2ccc(OC)c(OC)c2)C(C)C)cc1OC` (centres unmarked) [Verapamil] here?
**A.** Its value is “decrease in force”.

**Q.** What about the “effect on the T2-prolonging effect of 4AP” value [3] of the same molecule?
**A.** Its value is “no discernible effect”.

**Q.** With `CNC[C@H](O)c1ccc(O)c(O)c1` [epinephrine] as the molecule, how does the “effect on relaxation time T2 under electrical stimulation” value [2] read?
**A.** The value was “shortened T2”.

**Q.** And the “effect on intracellular Ca^2+ transients (duration)” value [2]?
**A.** Its value is “shortened it”.

**Q.** And the “change of frequency of beating in the burst” value ([3]; epinephrine 50 nM)?
**A.** Its value is 15–20%.

**Q.** What about the “beating frequency in the bursts” value ([3]; epinephrine 50 nM, 4.4-4.6 Hz without drug) of the same molecule?
**A.** Its value is 5-5.6 Hz.
